According to ChEMBL document CHEMBL4507277:

How the values were obtained:
[1] = biological target: Mitogen-activated protein kinase 11 (Homo sapiens) (UniProt Q15759); settings: Compound concentration 1000.0 nM
[2] = biological target: Mast/stem cell growth factor receptor Kit (Homo sapiens) (UniProt P10721); settings: Compound concentration 1000.0 nM
[3] = biological target: High affinity nerve growth factor receptor (Homo sapiens) (UniProt P04629); settings: Compound concentration 1000.0 nM
[4] = biological target: Ribosomal protein S6 kinase alpha-6 (Homo sapiens) (UniProt Q9UK32); settings: Compound concentration 1000.0 nM
[5] = biological target: Wee1-like protein kinase (Homo sapiens) (UniProt P30291); settings: Compound concentration 1000.0 nM
[6] = biological target: Protein kinase C eta type (Homo sapiens) (UniProt P24723); settings: Compound concentration 1000.0 nM
[7] = biological target: Casein kinase I isoform gamma-3 (Homo sapiens) (UniProt Q9Y6M4); settings: Compound concentration 1000.0 nM
[8] = biological target: Ribosomal protein S6 kinase alpha-3 (Homo sapiens) (UniProt P51812); settings: Compound concentration 1000.0 nM
[9] = biological target: Tyrosine-protein kinase ABL1 (Homo sapiens) (UniProt P00519); settings: Compound concentration 1000.0 nM
[10] = biological target: Tyrosine-protein kinase ABL2 (Homo sapiens) (UniProt P42684); settings: Compound concentration 1000.0 nM
[11] = biological target: Tyrosine-protein kinase Lyn (Homo sapiens) (UniProt P07948); settings: Compound concentration 1000.0 nM
[12] = biological target: BMP-2-inducible protein kinase (Homo sapiens) (UniProt Q9NSY1); settings: Compound concentration 1000.0 nM
[13] = biological target: Serine/threonine-protein kinase D3 (Homo sapiens) (UniProt O94806); settings: Compound concentration 1000.0 nM
[14] = biological target: Protein kinase C epsilon type (Homo sapiens) (UniProt Q02156); settings: Compound concentration 1000.0 nM
[15] = biological target: Homeodomain-interacting protein kinase 1 (Homo sapiens) (UniProt Q86Z02); settings: Compound concentration 1000.0 nM
[16] = biological target: Serine/threonine-protein kinase Chk1 (Homo sapiens) (UniProt O14757); settings: Compound concentration 1000.0 nM
[17] = biological target: TRAF2 and NCK-interacting protein kinase (Homo sapiens) (UniProt Q9UKE5); settings: Compound concentration 1000.0 nM
[18] = system: Phosphatidylinositol 4,5-bisphosphate 3-kinase catalytic subunit alpha isoform (Homo sapiens), P42336 [C420R]; settings: Compound concentration 1000.0 nM
[19] = biological target: Macrophage colony-stimulating factor 1 receptor (Homo sapiens) (UniProt P07333); settings: Compound concentration 1000.0 nM
[20] = biological target: Dual specificity tyrosine-phosphorylation-regulated kinase 1A (Homo sapiens) (UniProt Q13627); settings: Compound concentration 1000.0 nM
[21] = biological target: Serine/threonine-protein kinase PAK 3 (Homo sapiens) (UniProt O75914); settings: Compound concentration 1000.0 nM
[22] = biological target: Serine/threonine-protein kinase Sgk3 (Homo sapiens) (UniProt Q96BR1); settings: Compound concentration 1000.0 nM
[23] = biological target: Ribosomal protein S6 kinase alpha-4 (Homo sapiens) (UniProt O75676); settings: Compound concentration 1000.0 nM
[24] = biological target: Serine/threonine-protein kinase SIK2 (Homo sapiens) (UniProt Q9H0K1); settings: Compound concentration 1000.0 nM
[25] = system: Mast/stem cell growth factor receptor Kit (Homo sapiens), P10721 [V559D]; settings: Compound concentration 1000.0 nM
[26] = biological target: Serine/threonine-protein kinase MARK2 (Homo sapiens) (UniProt Q7KZI7); settings: Compound concentration 1000.0 nM
[27] = system: eIF-2-alpha kinase GCN2 (Homo sapiens), Q9P2K8 [S808G]; settings: Compound concentration 1000.0 nM
[28] = biological target: Mitogen-activated protein kinase kinase kinase 2 (Homo sapiens) (UniProt Q9Y2U5); settings: Compound concentration 1000.0 nM
[29] = biological target: Serine/threonine-protein kinase 38 (Homo sapiens) (UniProt Q15208); settings: Compound concentration 1000.0 nM
[30] = biological target: Serine/threonine-protein kinase N2 (Homo sapiens) (UniProt Q16513); settings: Compound concentration 1000.0 nM
[31] = biological target: MAP kinase-activated protein kinase 2 (Homo sapiens) (UniProt P49137); settings: Compound concentration 1000.0 nM
[32] = biological target: Serine/threonine-protein kinase PLK1 (Homo sapiens) (UniProt P53350); settings: Compound concentration 1000.0 nM
[33] = biological target: Serine/threonine-protein kinase PRP4 homolog (Homo sapiens) (UniProt Q13523); settings: Compound concentration 1000.0 nM
[34] = biological target: Calcium/calmodulin-dependent protein kinase type 1 (Homo sapiens) (UniProt Q14012); settings: Compound concentration 1000.0 nM
[35] = biological target: Cyclin-dependent kinase 17 (Homo sapiens) (UniProt Q00537); settings: Compound concentration 1000.0 nM
[36] = system: Proto-oncogene tyrosine-protein kinase receptor Ret (Homo sapiens), P07949 [V804M]; settings: Compound concentration 1000.0 nM
[37] = biological target: Serine/threonine-protein kinase Nek11 (Homo sapiens) (UniProt Q8NG66); settings: Compound concentration 1000.0 nM
[38] = biological target: Serine/threonine-protein kinase PknB (Mycobacterium tuberculosis) (UniProt P9WI81); settings: Compound concentration 1000.0 nM
[39] = biological target: Cyclin-dependent kinase 18 (Homo sapiens) (UniProt Q07002); settings: Compound concentration 1000.0 nM
[40] = biological target: Serine/threonine-protein kinase Nek5 (Homo sapiens) (UniProt Q6P3R8); settings: Compound concentration 1000.0 nM
[41] = biological target: Wee1-like protein kinase 2 (Homo sapiens) (UniProt P0C1S8); settings: Compound concentration 1000.0 nM
[42] = biological target: Muscarinic acetylcholine receptor M2 (Homo sapiens) (UniProt P08172); settings: Compound concentration 10.0 uM
[43] = biological target: Fibroblast growth factor receptor 4 (Homo sapiens) (UniProt P22455); settings: Compound concentration 1000.0 nM
[44] = biological target: Mitogen-activated protein kinase kinase kinase 5 (Homo sapiens) (UniProt Q99683); settings: Compound concentration 1000.0 nM
[45] = biological target: Phosphatidylinositol 4-kinase beta (Homo sapiens) (UniProt Q9UBF8); settings: Compound concentration 1000.0 nM

Serine/threonine-protein kinase MARK2 (Homo sapiens), sequence (Q7KZI7 whole entry): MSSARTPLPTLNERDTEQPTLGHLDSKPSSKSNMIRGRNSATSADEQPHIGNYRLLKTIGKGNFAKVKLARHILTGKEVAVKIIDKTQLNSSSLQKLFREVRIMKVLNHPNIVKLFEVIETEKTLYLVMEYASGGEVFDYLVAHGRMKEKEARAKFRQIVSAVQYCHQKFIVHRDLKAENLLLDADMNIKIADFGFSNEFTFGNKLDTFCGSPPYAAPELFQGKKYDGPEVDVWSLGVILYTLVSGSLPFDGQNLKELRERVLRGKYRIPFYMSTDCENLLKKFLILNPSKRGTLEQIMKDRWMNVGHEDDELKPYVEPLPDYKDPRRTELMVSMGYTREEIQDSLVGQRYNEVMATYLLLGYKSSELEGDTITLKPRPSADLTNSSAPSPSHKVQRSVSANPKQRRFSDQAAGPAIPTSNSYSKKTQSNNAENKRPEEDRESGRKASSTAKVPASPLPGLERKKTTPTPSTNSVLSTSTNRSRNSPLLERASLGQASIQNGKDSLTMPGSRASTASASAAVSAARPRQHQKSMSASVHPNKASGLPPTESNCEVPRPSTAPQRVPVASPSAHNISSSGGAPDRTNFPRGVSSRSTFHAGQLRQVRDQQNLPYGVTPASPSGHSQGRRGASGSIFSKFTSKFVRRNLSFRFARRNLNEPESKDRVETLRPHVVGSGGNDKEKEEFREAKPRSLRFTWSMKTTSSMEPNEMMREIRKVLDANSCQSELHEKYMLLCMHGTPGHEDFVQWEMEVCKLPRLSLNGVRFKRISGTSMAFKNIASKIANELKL
Wee1-like protein kinase (Homo sapiens), sequence (P30291 whole entry, looked up): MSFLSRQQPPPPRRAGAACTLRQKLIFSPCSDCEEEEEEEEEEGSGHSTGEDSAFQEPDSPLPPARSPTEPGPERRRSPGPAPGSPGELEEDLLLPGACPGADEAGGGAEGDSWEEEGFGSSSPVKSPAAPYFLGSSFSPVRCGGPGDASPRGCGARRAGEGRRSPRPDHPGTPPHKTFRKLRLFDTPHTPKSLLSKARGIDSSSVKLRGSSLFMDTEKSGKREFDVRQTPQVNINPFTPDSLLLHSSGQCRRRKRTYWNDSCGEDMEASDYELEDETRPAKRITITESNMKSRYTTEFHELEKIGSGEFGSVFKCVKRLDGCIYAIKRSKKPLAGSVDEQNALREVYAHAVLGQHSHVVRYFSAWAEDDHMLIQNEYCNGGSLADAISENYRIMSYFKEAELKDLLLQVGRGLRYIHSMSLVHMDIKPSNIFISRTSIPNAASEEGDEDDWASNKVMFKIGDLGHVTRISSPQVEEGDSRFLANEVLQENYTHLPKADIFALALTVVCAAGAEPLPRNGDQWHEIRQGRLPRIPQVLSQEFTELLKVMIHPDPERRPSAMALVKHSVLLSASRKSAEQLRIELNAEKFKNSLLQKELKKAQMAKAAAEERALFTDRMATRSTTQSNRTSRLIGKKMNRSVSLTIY
Phosphatidylinositol 4,5-bisphosphate 3-kinase catalytic subunit alpha isoform (Homo sapiens), P42336 [C420R], sequence (P42336 whole entry C420R, canonical isoform): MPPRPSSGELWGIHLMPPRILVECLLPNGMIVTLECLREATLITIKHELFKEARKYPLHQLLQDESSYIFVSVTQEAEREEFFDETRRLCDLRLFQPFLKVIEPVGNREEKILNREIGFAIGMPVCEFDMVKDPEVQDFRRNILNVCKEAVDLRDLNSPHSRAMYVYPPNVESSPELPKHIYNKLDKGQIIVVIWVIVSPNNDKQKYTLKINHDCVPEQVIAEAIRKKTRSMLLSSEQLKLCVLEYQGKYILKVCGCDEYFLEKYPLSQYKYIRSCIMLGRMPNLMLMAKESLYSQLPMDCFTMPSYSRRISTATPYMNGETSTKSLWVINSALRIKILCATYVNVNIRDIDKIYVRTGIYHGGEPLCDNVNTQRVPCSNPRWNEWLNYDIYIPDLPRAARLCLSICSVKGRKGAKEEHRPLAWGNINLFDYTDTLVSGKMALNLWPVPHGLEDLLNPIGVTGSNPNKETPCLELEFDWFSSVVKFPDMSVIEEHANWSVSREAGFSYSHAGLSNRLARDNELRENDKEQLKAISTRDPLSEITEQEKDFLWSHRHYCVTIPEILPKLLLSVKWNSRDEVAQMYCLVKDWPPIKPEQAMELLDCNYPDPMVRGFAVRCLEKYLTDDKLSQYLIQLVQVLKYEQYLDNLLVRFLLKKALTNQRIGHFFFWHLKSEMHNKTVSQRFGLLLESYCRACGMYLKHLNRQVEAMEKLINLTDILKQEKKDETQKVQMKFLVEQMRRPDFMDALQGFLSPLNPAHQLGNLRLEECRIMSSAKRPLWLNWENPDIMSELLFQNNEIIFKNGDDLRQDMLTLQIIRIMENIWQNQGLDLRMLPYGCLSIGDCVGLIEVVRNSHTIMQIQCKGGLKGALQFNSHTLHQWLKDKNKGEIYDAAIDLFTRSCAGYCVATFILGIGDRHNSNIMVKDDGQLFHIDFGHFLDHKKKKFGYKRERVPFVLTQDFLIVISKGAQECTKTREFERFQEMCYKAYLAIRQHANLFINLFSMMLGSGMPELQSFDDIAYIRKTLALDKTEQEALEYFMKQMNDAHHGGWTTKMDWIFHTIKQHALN
Serine/threonine-protein kinase N2 (Homo sapiens), sequence (Q16513 whole entry, looked up): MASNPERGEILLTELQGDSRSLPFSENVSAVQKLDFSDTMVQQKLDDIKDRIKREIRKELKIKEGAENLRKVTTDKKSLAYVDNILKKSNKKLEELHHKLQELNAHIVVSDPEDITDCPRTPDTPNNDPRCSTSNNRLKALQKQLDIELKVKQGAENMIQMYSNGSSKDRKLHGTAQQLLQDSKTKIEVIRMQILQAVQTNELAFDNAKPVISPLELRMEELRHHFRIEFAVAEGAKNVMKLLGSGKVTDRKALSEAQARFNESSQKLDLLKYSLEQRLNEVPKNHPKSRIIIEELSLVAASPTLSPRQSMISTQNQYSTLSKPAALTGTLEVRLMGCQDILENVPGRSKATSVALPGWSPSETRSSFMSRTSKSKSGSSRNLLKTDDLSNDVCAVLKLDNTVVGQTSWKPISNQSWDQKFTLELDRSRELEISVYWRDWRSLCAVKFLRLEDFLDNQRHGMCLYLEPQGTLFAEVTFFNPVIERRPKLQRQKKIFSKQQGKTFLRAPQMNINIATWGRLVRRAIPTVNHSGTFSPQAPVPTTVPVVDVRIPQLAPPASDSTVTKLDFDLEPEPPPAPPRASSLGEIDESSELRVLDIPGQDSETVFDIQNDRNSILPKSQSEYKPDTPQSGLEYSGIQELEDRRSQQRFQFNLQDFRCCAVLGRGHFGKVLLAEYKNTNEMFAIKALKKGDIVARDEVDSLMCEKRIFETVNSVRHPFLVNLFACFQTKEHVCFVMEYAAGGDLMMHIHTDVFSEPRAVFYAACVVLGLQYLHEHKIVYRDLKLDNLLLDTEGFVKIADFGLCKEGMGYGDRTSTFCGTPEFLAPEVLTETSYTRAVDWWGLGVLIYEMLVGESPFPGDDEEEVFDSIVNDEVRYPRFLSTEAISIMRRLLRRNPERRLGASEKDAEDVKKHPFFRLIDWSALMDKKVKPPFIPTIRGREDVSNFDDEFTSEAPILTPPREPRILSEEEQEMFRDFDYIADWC
Serine/threonine-protein kinase SIK2 (Homo sapiens), sequence (Q9H0K1 whole entry, looked up): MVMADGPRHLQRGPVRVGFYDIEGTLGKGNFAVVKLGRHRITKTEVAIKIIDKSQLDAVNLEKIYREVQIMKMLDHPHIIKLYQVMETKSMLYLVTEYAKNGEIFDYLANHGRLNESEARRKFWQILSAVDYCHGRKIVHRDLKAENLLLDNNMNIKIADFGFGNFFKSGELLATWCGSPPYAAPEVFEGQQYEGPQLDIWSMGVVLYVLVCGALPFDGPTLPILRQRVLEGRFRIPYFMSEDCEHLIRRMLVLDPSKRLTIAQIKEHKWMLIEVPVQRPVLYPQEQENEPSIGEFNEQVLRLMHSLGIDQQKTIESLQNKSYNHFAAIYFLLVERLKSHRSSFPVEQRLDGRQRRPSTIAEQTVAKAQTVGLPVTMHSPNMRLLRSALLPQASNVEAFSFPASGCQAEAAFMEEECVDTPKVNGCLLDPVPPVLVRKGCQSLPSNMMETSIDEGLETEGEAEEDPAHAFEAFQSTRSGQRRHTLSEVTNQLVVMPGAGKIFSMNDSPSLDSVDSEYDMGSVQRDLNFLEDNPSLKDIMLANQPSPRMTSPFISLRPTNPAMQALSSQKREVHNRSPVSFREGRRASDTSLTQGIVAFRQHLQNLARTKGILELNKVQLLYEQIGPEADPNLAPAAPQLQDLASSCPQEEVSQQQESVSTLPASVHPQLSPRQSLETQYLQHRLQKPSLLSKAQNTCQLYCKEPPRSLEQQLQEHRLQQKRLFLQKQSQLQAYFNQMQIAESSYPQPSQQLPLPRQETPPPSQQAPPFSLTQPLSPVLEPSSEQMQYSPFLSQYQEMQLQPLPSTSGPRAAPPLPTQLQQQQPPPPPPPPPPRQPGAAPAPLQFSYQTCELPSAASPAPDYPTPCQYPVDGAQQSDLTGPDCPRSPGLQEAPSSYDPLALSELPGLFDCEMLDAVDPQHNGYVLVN
Serine/threonine-protein kinase Sgk3 (Homo sapiens), sequence (Q96BR1 whole entry): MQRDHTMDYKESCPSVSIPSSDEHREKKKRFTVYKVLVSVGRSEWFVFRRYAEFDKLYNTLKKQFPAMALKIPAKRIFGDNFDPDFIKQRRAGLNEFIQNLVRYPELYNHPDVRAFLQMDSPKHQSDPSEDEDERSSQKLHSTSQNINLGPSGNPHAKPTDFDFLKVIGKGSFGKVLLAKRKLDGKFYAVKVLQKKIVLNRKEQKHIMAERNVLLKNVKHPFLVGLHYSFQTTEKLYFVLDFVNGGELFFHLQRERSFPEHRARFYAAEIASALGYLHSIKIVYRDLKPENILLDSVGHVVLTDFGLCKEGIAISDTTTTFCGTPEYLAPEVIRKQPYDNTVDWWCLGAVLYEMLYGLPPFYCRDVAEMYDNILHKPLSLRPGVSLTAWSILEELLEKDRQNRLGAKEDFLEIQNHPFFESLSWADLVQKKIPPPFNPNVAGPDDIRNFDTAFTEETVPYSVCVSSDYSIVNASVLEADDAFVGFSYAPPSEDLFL

Compound: CCS(=O)(=O)c1cc2cc(C[C@@](O)(CC(C)(C)c3ccc(F)cc3C(N)=O)C(F)(F)F)[nH]c2cn1
- residual activity [1]: 100%
- residual activity [2]: 100%
- residual activity [3]: 74%
- residual activity [4]: 0%
- residual activity [5]: 100%
- residual activity [6]: 100%
- residual activity [7]: 100%
- residual activity [8]: 100%
- residual activity [9]: 71%
- residual activity [10]: 88%
- residual activity [11]: 100%
- residual activity [12]: 69%
- residual activity [13]: 100%
- residual activity [14]: 100%
- residual activity [15]: 90%
- residual activity [16]: 100%
- residual activity [17]: 97%
- residual activity [18]: 89%
- residual activity [19]: 94%
- residual activity [20]: 66%
- residual activity [21]: 100%
- residual activity [22]: 79%
- residual activity [23]: 71%
- residual activity [24]: 100%
- residual activity [25]: 100%
- residual activity [26]: 100%
- residual activity [27]: 94%
- residual activity [28]: 100%
- residual activity [29]: 76%
- residual activity [30]: 85%
- residual activity [31]: 100%
- residual activity [32]: 85%
- residual activity [33]: 80%
- residual activity [34]: 57%
- residual activity [35]: 82%
- residual activity [36]: 74%
- residual activity [37]: 100%
- residual activity [38]: 84%
- residual activity [39]: 100%
- residual activity [40]: 100%
- residual activity [41]: 95%
- inhibition [42]: -8.82%
- residual activity [43]: 100%
- residual activity [44]: 100%
- residual activity [45]: 100%

Compound: CCS(=O)(=O)c1cc2cc(C[C@](O)(CC(C)(C)c3ccc(F)cc3C(N)=O)C(F)(F)F)[nH]c2cn1
- residual activity [1]: 100%
- residual activity [2]: 95%
- residual activity [3]: 82%
- residual activity [4]: 100%
- residual activity [5]: 100%
- residual activity [6]: 94%
- residual activity [7]: 100%
- residual activity [8]: 100%
- residual activity [9]: 100%
- residual activity [10]: 80%
- residual activity [11]: 100%
- residual activity [12]: 83%
- residual activity [13]: 99%
- residual activity [14]: 96%
- residual activity [15]: 94%
- residual activity [16]: 97%
- residual activity [17]: 100%
- residual activity [18]: 95%
- residual activity [19]: 100%
- residual activity [20]: 100%
- residual activity [21]: 100%
- residual activity [22]: 89%
- residual activity [23]: 94%
- residual activity [24]: 100%
- residual activity [25]: 100%
- residual activity [26]: 78%
- residual activity [27]: 89%
- residual activity [28]: 100%
- residual activity [29]: 91%
- residual activity [30]: 100%
- residual activity [31]: 100%
- residual activity [32]: 100%
- residual activity [33]: 98%
- residual activity [34]: 86%
- residual activity [35]: 88%
- residual activity [36]: 100%
- residual activity [37]: 93%
- residual activity [38]: 95%
- residual activity [39]: 100%
- residual activity [40]: 100%
- residual activity [41]: 100%
- inhibition [42]: -0.48%
- residual activity [43]: 72%
- residual activity [44]: 100%
- residual activity [45]: 100%
